Source: patent US20220265629A1, “TREATMENT OF SYSTOLIC DYSFUNCTION AND HEART FAILURE WITH REDUCED EJECTION FRACTION WITH THE COMPOUND (R)-4-(1-((3-(DIFLUOROMETHYL)-1-METHYL-1H-PYRAZOL-4-YL)SULFONYL)-1-FLUOROETHYL)-N-(ISOXAZOL-3-YL)PIPERIDINE-1-CARBOXAMIDE” (MyoKardia, Inc., priority 2019, published 2022)
Several values for one entry are separate records, joined by “and”; a condition that tells them apart may be missing. Identical values can stand only once. Like-named read-outs stand apart in the source and are kept apart here.

Experiment: HFrEF study Part 2 (MAD Cohorts A-D): plasma pharmacokinetics
Format: in vivo, human
Settings: for Plasma concentration, Mean / Plasma concentration, Median: MAD cohorts; for AUC / Cmax / half-life: human, plasma, oral; for half-life: read-out: t1/2, λz (converted)
Excerpt: This was a randomized, parallel-group, DB, placebo-controlled, adaptive design, sequential ascending (oral) multiple-close study in stable patients with heart failure. Four MAD Cohorts (A, B, C, D) were enrolled (FIG. 5B). An SRC reviewed results from each cohort and determined the close and confirmed initial sample size for the subsequent cohort. Additionally, the first 3 patients in each cohort had LVEF≥25%; the SRC reviewed preliminary safety data from these patients and decided whether to open cohort enrollment to patients with LVEF<25%.
After Screening and qualification, patients were confined to a clinical testing facility from Day 1 (Check-in) to Day 11. Each patient initially received placebo BID for 2 days (Days 1 and 2) in single-blinded manner (“run-in” during acclimatization to confinement in the Clinical Testing Unit) prior to receiving the randomized DB study drug treatment on Day 3. All patients then received either placebo or active Compound I for 7 days (Days 3 through 9), with a follow-up period with patients discharged from the unit on Day 11. A final follow-up clinic visit was conducted on Day 16. More than one patient could be closed in a cohort at the same time or during the same week depending on administrative issues, i.e., capacity and scheduling.
Patients were closed twice daily (every 12 hours). Doses could occur±2 hours from scheduled dosing times as long as closes were separated by at least 10 hours and by no more than 14 hours. The exception to the twice daily dosing was on Day 9 (last dose of randomized DB study drug treatment). On Day 9, a single morning close was administered.
During the study, multiple evaluations were performed that included: serial TTE assessments (11-14 TTEs per patient on Days 1, 2, 3, 4, 7, 9, 10 and 11); PK sampling (PK sample collected concomitantly with every post-randomization echocardiogram); ECGs (on Days 2, 3, 4, 7, 9, 10, 11 and 16); troponin (collected concomitantly with every post-randomization ECG); and safety laboratory assessments. Confined patients underwent continuous telemetry. Holter monitoring was performed in all patients at baseline (Days 1-2) and at the end of double-blind treatment (Days 7-9). Vital signs were collected daily.
Study medication consisted of Compound I 5 mg tablets, 25 mg tablets, 100 mg tablets, or matching placebo tablets. In Part 1 (SAD), Compound I or placebo was administered after an overnight fast (at least 6 hours), while in Part 2 (MAD), Compound I was administered after a 2 hour fast (Cohort A) or with food (Cohorts B, C, and D). The close was ingested with a minimum of 240 mL of water, but more water was ingested as needed. The entire close was administered over a period of up to 15 minutes. The time of close used to determine future assessments was the time the last tablet was taken. In the cohorts for Part 2 (MAD), a BID regimen was used.
In Part 2 (MAD), Cohort A patients fasted for 2 hours before and 2 hours after dosing. For example, if morning dosing occurred at 8 AM, patients could have a snack at 6 AM and a full breakfast at 10 AM. If afternoon dosing occurred at 8 PM, patients could have dinner at 6 PM and a snack at 10 PM. […] Cohort B, C, and D patients ingested food with each close.

[1] = MAD Cohort C, 75 mg BID (with food), individual subjects
[2] = MAD Cohort D, 100 mg BID (with food), Mean
[3] = plasma concentration group 2000-<3500 ng/mL (n = 26)
[4] = plasma concentration group <2000 ng/mL (n = 30)
[5] = plasma concentration group ≥3500 ng/mL (n = 13)

With `Cn1cc(S(=O)(=O)[C@@](C)(F)C2CCN(C(=O)Nc3ccon3)CC2)c(C(F)F)n1` [Compound I, (R)-4-(1-((3-(difluoromethyl)-1-methyl-1H-pyrazol-4-yl)sulfonyl)-1-fluoroethyl)-N-(isoxazol-3-yl)piperidine-1-carboxamide] the “Cmax, Day 1” value [1] was 1020 ng/mL and 1190 ng/mL and 1030 ng/mL and 1150 ng/mL and 1650 ng/mL and 1360 ng/mL, the “Cmax, SS” value [1] was 3860 ng/mL and 1840 ng/mL and 3810 ng/mL and 4140 ng/mL and 4940 ng/mL and 3220 ng/mL and 3930 ng/mL and 4720 ng/mL and 5010 ng/mL and the “Cmin, SS” value [1] was 1740 ng/mL and 954 ng/mL and 2660 ng/mL and 3240 ng/mL and 3910 ng/mL and 2530 ng/mL and 2440 ng/mL and 3930 ng/mL and 3900 ng/mL. The “t1/2, λz” value [1] was 13.55 h and 15.34 h and 20.46 h and 23.11 h and 41.54 h and 15.67 h and 13.72 h and 30.37 h and 24.06 h, the AUC_TAU (MAD Cohort C, 75 mg BID (with food), steady state, individual subjects) was 32340 ng·h/mL and 15700 ng·h/mL and 37520 ng·h/mL and 44850 ng·h/mL and 53180 ng·h/mL and 35560 ng·h/mL and 38470 ng·h/mL and 51200 ng·h/mL and 53690 ng·h/mL and the “Accumulation Ratio AUC tau” value [2] was 4.65. The “Accumulation Ratio Cmax” value [2] was 3.89, the Accumulation_Index [2] was 3.30 and the “Cavg, ss” value [2] was 5030 ng/mL. The “Cmin, SS” value [2] was 4333 ng/mL, the “Plasma concentration, Mean” value [3] was 2716 ng/mL and the “Plasma concentration, Median” value [3] was 2740 ng/mL. For the same compound, the “Plasma concentration, Mean” value [4] was 1169 ng/mL, the “Plasma concentration, Median” value [4] was 1220 ng/mL and the “Plasma concentration, Mean” value [5] was 4448 ng/mL. The “Plasma concentration, Median” value [5] was 4290 ng/mL, the AUC (50 mg, MAD Cohort B, 50 mg BID (with food), Mean, read-out: AUCtau, Day 1) was 7300 ng·h/mL and the Cmax (50 mg, MAD Cohort B, 50 mg BID (with food), Mean, read-out: Cmax, Day 1) was 806 ng/mL. It also gave a Cmax (50 mg, MAD Cohort B, 50 mg BID (with food), Mean, read-out: Cmax, SS) of 2770 ng/mL, a half-life (50 mg, MAD Cohort B, 50 mg BID (with food), Mean) of 25.1 h and an AUC (50 mg, MAD Cohort B, 50 mg BID (with food), individual subjects, read-out: AUCtau, Day 1) of 7430 ng·h/mL. It also gave a Cmax (50 mg, MAD Cohort B, 50 mg BID (with food), individual subjects, read-out: Cmax, Day 1) of 933 ng/mL, a Cmax (50 mg, MAD Cohort B, 50 mg BID (with food), individual subjects, read-out: Cmax, SS) of 2950 ng/mL and an AUC (50 mg, MAD Cohort B, 50 mg BID (with food), steady state, Mean, read-out: AUC_TAU) of 28900 ng·h/mL. For the same compound, the AUC (50 mg, MAD Cohort B, 50 mg BID (with food), steady state, individual subjects, read-out: AUC_TAU) was 29700 ng·h/mL, the AUC (75 mg, MAD Cohort A, 75 mg BID (4 h fasting), Mean, read-out: AUCtau, Day 1) was 10400 ng·h/mL and the Cmax (75 mg, MAD Cohort A, 75 mg BID (4 h fasting), Mean, read-out: Cmax, Day 1) was 1120 ng/mL. For the same compound, the Cmax (75 mg, MAD Cohort A, 75 mg BID (4 h fasting), Mean, read-out: Cmax, SS) was 4050 ng/mL, the half-life (75 mg, MAD Cohort A, 75 mg BID (4 h fasting), Mean) was 21.4 h and the AUC (75 mg, MAD Cohort A, 75 mg BID (4 h fasting), individual subjects, read-out: AUCtau, Day 1) was 10600 ng·h/mL. For the same compound, the Cmax (75 mg, MAD Cohort A, 75 mg BID (4 h fasting), individual subjects, read-out: Cmax, Day 1) was 1060 ng/mL, the Cmax (75 mg, MAD Cohort A, 75 mg BID (4 h fasting), individual subjects, read-out: Cmax, SS) was 4580 ng/mL and the AUC (75 mg, MAD Cohort A, 75 mg BID (4 h fasting), steady state, Mean, read-out: AUC_TAU) was 41000 ng·h/mL. It also gave an AUC (75 mg, MAD Cohort A, 75 mg BID (4 h fasting), steady state, individual subjects, read-out: AUC_TAU) of 46200 ng·h/mL, an AUC (75 mg, MAD Cohort C, 75 mg BID (with food), Mean, read-out: AUCtau, Day 1) of 10600 ng·h/mL and a Cmax (75 mg, MAD Cohort C, 75 mg BID (with food), Mean, read-out: Cmax, Day 1) of 1250 ng/mL. For the same compound, the Cmax (75 mg, MAD Cohort C, 75 mg BID (with food), Mean, read-out: Cmax, SS) was 3940 ng/mL, the half-life (75 mg, MAD Cohort C, 75 mg BID (with food), Mean) was 22 h and the Cmax (75 mg, MAD Cohort C, 75 mg BID (with food), individual subjects, read-out: Cmax, Day 1) was 1780 ng/mL. It also gave an AUC (75 mg, MAD Cohort C, 75 mg BID (with food), steady state, Mean, read-out: AUC_TAU) of 40300 ng·h/mL, an AUC (100 mg, MAD Cohort D, 100 mg BID (with food), Mean, read-out: AUCtau, Day 1) of 12900 ng·h/mL and a Cmax (100 mg, MAD Cohort D, 100 mg BID (with food), Mean, read-out: Cmax, Day 1) of 1480 ng/mL. For the same compound, the Cmax (100 mg, MAD Cohort D, 100 mg BID (with food), Mean, read-out: Cmax, SS) was 5680 ng/mL, the half-life (100 mg, MAD Cohort D, 100 mg BID (with food), Mean) was 23.1 h and the AUC (100 mg, MAD Cohort D, 100 mg BID (with food), individual subjects, read-out: AUCtau, Day 1) was 11600 ng·h/mL. For the same compound, the Cmax (100 mg, MAD Cohort D, 100 mg BID (with food), individual subjects, read-out: Cmax, Day 1) was 1560 ng/mL, the Cmax (100 mg, MAD Cohort D, 100 mg BID (with food), individual subjects, read-out: Cmax, SS) was 5210 ng/mL and the half-life (100 mg, MAD Cohort D, 100 mg BID (with food), individual subjects) was 24.3 h. For the same compound, the AUC (100 mg, MAD Cohort D, 100 mg BID (with food), steady state, Mean, read-out: AUC_TAU) was 60400 ng·h/mL.
